The subject of this assay is Plasmodium berghei. The experiment in a line: Luciferase/luciferin-expressing antifolate-resistant parasites were used to infect a culture of HepG2 cells that were pre-incubated with compounds. Infected hepatocytes emit light due to the luciferase reaction. Assay results are presented as the percent inhibition of light emission compared to control. […]. Format: functional. As to conditions: sporozoite; for IC90: read-out: LUCIFERASE INFECTION ASSAY - IC90.

[1] abbreviates: read-out: LUCIFERASE INFECTION ASSAY - IC50.

Usually IC50 stands for the midpoint of a concentration-inhibition curve. By IC90 is commonly meant the concentration needed for an effect of 90%.

Structures are written as SMILES.

As to `FC(F)(F)c1cnc(Sc2nc(CN3CCOCC3)nc3scc(-c4ccccc4)c23)c(Cl)c1`, the 90% effect concentration (IC90) was over 10 µM. In addition, the half-maximal inhibitory concentration (IC50) under setting [1] was over 10 µM.

With `Cc1ccc(NC(=O)Cc2nc(-c3ccc4c(c3)OCO4)cs2)c(C)c1`, the IC90 was over 10 µM. The IC50 (PBLUC_HILL_SLOPE 12.9, PBLUC_R_SQUARED 0.436, read-out: LUCIFERASE INFECTION ASSAY - IC50) came to 8.84 µM.

Consider `CCCCCNS(=O)(=O)c1cccc2c(N)cccc12`, for which the IC90 is over 11.3 µM. Further, under setting [1], the IC50 came out at 3.76 µM.

As for `C/C(=N\NC(=S)NCC(C)(C)C)c1cc(F)cc(Cl)c1O`, the concentration for an effect of 90% (IC90) is over 9.94 µM. Besides, the IC50 (PBLUC_HILL_SLOPE 12.9, PBLUC_R_SQUARED 0.356, read-out: LUCIFERASE INFECTION ASSAY - IC50) worked out at 9.7 µM.

In the case of `Cc1c(C(=O)Nc2cccc(Cl)c2)sc2nc(C(F)(F)F)nn12`, the 90% effect concentration (IC90) was over 9.15 µM. For the same compound, the IC50 under setting [1] is over 9.15 µM.

In the case of `CNc1nc(NCc2cccc(OC)c2)c2sc(-c3ccccc3)cc2n1`, the IC90 is over 8.77 µM. Also, under setting [1], the half-maximal inhibitory concentration (IC50) is over 8.77 µM.

In the case of `CCn1ncc2c(C(=O)Nc3nc(-c4ccc(OC)cc4OC)cs3)cc(-c3cccs3)nc21`, the IC90 was over 10 µM. Under setting [1], the IC50 was over 10 µM.

As for `CSc1sc(-c2n[nH]cc2Br)c2c1C(=O)CC(C)(C)C2`, the 90% effect concentration (IC90) was over 8.89 µM. Further, the IC50 (FFLUC_HILL_SLOPE 0.501, FFLUC_R_SQUARED 0.129, read-out: LUCIFERASE INFECTION ASSAY - IC50) was over 8.89 µM.

As to `O=C(CN1CCN(C(C(=O)Nc2cc(C(F)(F)F)ccc2Cl)c2ccccc2)CC1)NC1CC1` (configuration not stated), the IC90 is over 10 µM. Also, the IC50 under setting [1] is 9.79 µM.

As to `c1cncc(-c2ccc3ncc(-c4cccnc4)n3n2)c1`, the IC90 came out at 2.92 µM. In addition, where the note is “HEPG2TOX_HILL_SLOPE 1.17, HEPG2TOX_R_SQUARED 0.949, PBLUC_HILL_SLOPE 1.66, PBLUC_R_SQUARED 0.633, read-out: LUCIFERASE INFECTION ASSAY - IC50”, the concentration for half-maximal inhibition (IC50) is 0.778 µM.

For `C=CCn1c(SCC(=O)c2cc(C)n(-c3cc(F)ccc3F)c2C)nc2scc(-c3ccccc3)c2c1=O`, the IC90 is 8.56 µM. Besides, the IC50 (PBLUC_HILL_SLOPE 5.29, PBLUC_R_SQUARED 0.561, read-out: LUCIFERASE INFECTION ASSAY - IC50) is 5.65 µM.

As to `COc1ccc(CN2C(=O)c3ccccc3C(C=NNc3nc(=O)cc(C)[nH]3)C2=O)cc1` (configuration not stated), the IC90 worked out at 3.8 µM. Further, the half-inhibitory concentration (IC50) (HEPG2TOX_HILL_SLOPE 12.8, HEPG2TOX_R_SQUARED 0.611, PBLUC_HILL_SLOPE 3.06, PBLUC_R_SQUARED 0.688, read-out: LUCIFERASE INFECTION ASSAY - IC50) was found to be 1.85 µM.

For `Cc1nc(Oc2ccc3ccc(=O)oc3c2)c2c3c(sc2n1)CCCCC3`, the IC90 is over 10 µM. Also, the IC50 (PBLUC_HILL_SLOPE 3.34, 13.2, PBLUC_R_SQUARED 0.778, 0.263, read-out: LUCIFERASE INFECTION ASSAY - IC50) is 7.83 µM.

On to `CCOC(=O)c1c(C)oc(-c2ccc(Cl)cc2)c1S(=O)(=O)Nc1cccc(C)c1`, for which the IC90 is over 7.61 µM. The IC50 (HEPG2TOX_HILL_SLOPE 7.66, HEPG2TOX_R_SQUARED 0.177, read-out: LUCIFERASE INFECTION ASSAY - IC50) was over 7.61 µM.

For the compound `O=C(Nc1cccc(F)c1)Nc1ccc2nc(-c3cccnc3)nn2c1`, the concentration for an effect of 90% (IC90) is over 10 µM. Also, the IC50 under setting [1] is over 10 µM.

As to `CCNC(=O)NC(=O)C(c1ccccc1)n1nc(C(=O)O)c2ccccc2c1=O` (configuration not stated), the concentration for an effect of 90% (IC90) is over 10 µM. For the same compound, the IC50 under setting [1] was over 10 µM.

`CC(C)Nc1cc(-c2ccccc2)nc2c(-c3ccccc3)cnn12`: the concentration for an effect of 90% (IC90) is over 10 µM. In addition, the IC50 (PBLUC_HILL_SLOPE 1.35, PBLUC_R_SQUARED 0.594, read-out: LUCIFERASE INFECTION ASSAY - IC50) was 2.01 µM.

In the case of `Cn1c(=O)oc2ccc(S(=O)(=O)Nc3ccc4c(c3)CCCC4)cc21`, the 90% effect concentration (IC90) is over 9.21 µM. Under setting [1], the IC50 is over 9.21 µM.

For `Clc1ccc(SCc2nc(N3CCN(c4ncccn4)CC3)c3c4c(sc3n2)CCC4)cc1`, the IC90 was over 10 µM. Moreover, the 50% inhibitory concentration (IC50) under setting [1] was over 10 µM.

Consider `CN(C)c1ccc(C(c2ccc(OC(F)F)cc2)c2ccc(N(C)C)cc2)cc1`, for which the IC90 came to 6.27 µM. Where the note is “HEPG2TOX_HILL_SLOPE 3.6, HEPG2TOX_R_SQUARED 0.971, PBLUC_HILL_SLOPE 3.21, PBLUC_R_SQUARED 0.781, read-out: LUCIFERASE INFECTION ASSAY - IC50”, the 50% inhibitory concentration (IC50) was 3.16 µM.

For the compound `Cc1cccc(Cn2nc(C(C)(C)C)cc2-c2nnc(SCC(=O)c3ccccc3)o2)c1`, the IC90 is over 7.39 µM. Besides, where the note is “FFLUC_HILL_SLOPE 16.7, FFLUC_R_SQUARED 0.464, PBLUC_HILL_SLOPE 10.3, PBLUC_R_SQUARED 0.0963, read-out: LUCIFERASE INFECTION ASSAY - IC50”, the half-inhibitory concentration (IC50) was over 7.39 µM.

Consider `CCS(=O)(=O)c1ccc2oc(NC(=O)C3CCC3)nc2c1`, for which the 90% effect concentration (IC90) is over 10 µM. Besides, the 50% inhibitory concentration (IC50) under setting [1] was over 10 µM.

Take `Cc1cc(NCc2c(F)cccc2Cl)ccc1N1CCCC1=O`: the 90% effect concentration (IC90) was over 10 µM. In addition, the IC50 (PBLUC_HILL_SLOPE 14.5, PBLUC_R_SQUARED 0.0625, read-out: LUCIFERASE INFECTION ASSAY - IC50) was 9.88 µM.

Regarding `CC(C)c1cc(NCCCN2CCOCC2)n2ncc(-c3ccccc3)c2n1`, the concentration for an effect of 90% (IC90) is over 8.7 µM. In addition, the IC50 (PBLUC_HILL_SLOPE 2.21, PBLUC_R_SQUARED 0.515, read-out: LUCIFERASE INFECTION ASSAY - IC50) is 4.34 µM.

In the case of `CN(C)c1cccc(-c2cnc3cnc(-c4ccc(C(=O)NC5CC5)cc4)cn23)c1`, the IC90 was over 8.3 µM. For the same compound, the half-inhibitory concentration (IC50) (PBLUC_HILL_SLOPE 2.95, PBLUC_R_SQUARED 0.0505, read-out: LUCIFERASE INFECTION ASSAY - IC50) was found to be 7.62 µM.

In the case of `Cc1nn(-c2ccccc2)c2nc(Cl)c(C3Nc4ccccc4-c4nc5ccccc5n43)cc12` (configuration not stated), the IC90 is over 10 µM. For the same compound, the IC50 (FFLUC_HILL_SLOPE 11.9, FFLUC_R_SQUARED 0.792, read-out: LUCIFERASE INFECTION ASSAY - IC50) is over 10 µM.

`Cc1cc2ccccn2c1C(=O)c1nc(S(C)(=O)=O)ncc1Cl`: the IC90 is over 10 µM. Also, where the note is “HEPG2TOX_HILL_SLOPE 4.52, HEPG2TOX_R_SQUARED 0.995, PBLUC_HILL_SLOPE 10.9, PBLUC_R_SQUARED 0.162, read-out: LUCIFERASE INFECTION ASSAY - IC50”, the IC50 stood at 8.19 µM.

As for `Cc1nc(-c2ccccn2)nc(NCCc2ccccc2)c1Cl`, the concentration for an effect of 90% (IC90) was determined as 5.38 µM. For the same compound, the IC50 (PBLUC_HILL_SLOPE 7.11, PBLUC_R_SQUARED 0.141, read-out: LUCIFERASE INFECTION ASSAY - IC50) is 3.95 µM.

With `COc1cc(CCC2CCN(CC(=O)c3c(N)n(C)c(=O)n(C)c3=O)CC2)cc(OC)c1`, the concentration for an effect of 90% (IC90) is over 10 µM. Besides, the concentration for half-maximal inhibition (IC50) (PBLUC_HILL_SLOPE 1.27, PBLUC_R_SQUARED 0.409, read-out: LUCIFERASE INFECTION ASSAY - IC50) was determined as 5.13 µM.

Regarding `Cc1ccc(NC(=O)Nc2ccc(Cl)c(Cl)c2)nc1`, the concentration for an effect of 90% (IC90) was determined as 9.58 µM. Moreover, the IC50 (PBLUC_HILL_SLOPE 3.93, PBLUC_R_SQUARED 0.477, read-out: LUCIFERASE INFECTION ASSAY - IC50) is 5.48 µM.

For the compound `COc1ccc(S(=O)(=O)NC(C)(C)C)cc1C(C)(C)C`, the IC90 is over 3.33 µM. Moreover, the half-inhibitory concentration (IC50) (PBLUC_HILL_SLOPE 0.386, PBLUC_R_SQUARED 0.474, read-out: LUCIFERASE INFECTION ASSAY - IC50) was 0.196 µM.

`COc1ccc(-c2cnc3cnc(-c4ccsc4)cn23)cc1`: the IC90 came to 4.82 µM. Besides, the IC50 (HEPG2TOX_HILL_SLOPE 3.46, HEPG2TOX_R_SQUARED 0.703, PBLUC_HILL_SLOPE 8.9, PBLUC_R_SQUARED 0.737, read-out: LUCIFERASE INFECTION ASSAY - IC50) was 3.76 µM.

Take `CN(C)c1ccc(-c2ccc3nnc(-c4ccccc4)n3c2)cc1`: the IC90 is 4.59 µM. Moreover, the concentration for half-maximal inhibition (IC50) (HEPG2TOX_HILL_SLOPE 1.89, HEPG2TOX_R_SQUARED 0.955, PBLUC_HILL_SLOPE 2.66, PBLUC_R_SQUARED 0.575, read-out: LUCIFERASE INFECTION ASSAY - IC50) was 2.01 µM.

As to `COc1ccc(OC)c(CCNc2nc3cnc(-c4ccc5c(c4)OCO5)cc3n2C)c1`, the concentration for an effect of 90% (IC90) amounted to 2.5 µM. Moreover, the IC50 (HEPG2TOX_HILL_SLOPE 2.94, HEPG2TOX_R_SQUARED 0.93, PBLUC_HILL_SLOPE 1.47, PBLUC_R_SQUARED 0.742, read-out: LUCIFERASE INFECTION ASSAY - IC50) came to 0.558 µM.

With `CN(CCCNC(=O)CSc1nnc(-c2c[nH]c3ccccc23)n1C1CC1)c1ccccc1`, the IC90 was 9.32 µM. For the same compound, the IC50 (HEPG2TOX_HILL_SLOPE 3.48, HEPG2TOX_R_SQUARED 0.658, PBLUC_HILL_SLOPE 4.72, PBLUC_R_SQUARED 0.65, read-out: LUCIFERASE INFECTION ASSAY - IC50) was 5.85 µM.

In the case of `Cc1nc(-c2cccs2)sc1NC(=O)Nc1ccc(Cl)cc1`, the IC90 was over 9.43 µM. Also, under setting [1], the IC50 was over 9.43 µM.

Regarding `Cc1nn2c(nc(NCCCc3n[nH]c(N)c3C#N)c3ccccc32)c1Cl`, the IC90 was over 10 µM. In addition, the 50% inhibitory concentration (IC50) under setting [1] was over 10 µM.

Regarding `CCOc1ccc(NC(=O)CCOc2cccc(C)c2)cc1`, the 90% effect concentration (IC90) is over 11 µM. The concentration for half-maximal inhibition (IC50) under setting [1] was over 11 µM.

Regarding `Cc1nn(-c2ccc(F)cc2)c(C)c1/C=C/C(=O)OCC(=O)Nc1cc(S(=O)(=O)N2CCOCC2)ccc1Cl`, the IC90 is over 10 µM. Moreover, the IC50 under setting [1] was over 10 µM.

For the compound `CCOC(=O)c1sc(SC)c2c1CC(c1ccccc1)CC2=O` (configuration not stated), the IC90 is over 9.52 µM. Besides, the 50% inhibitory concentration (IC50) under setting [1] was over 9.52 µM.

Turning to `COC(=O)c1sc(S(C)(=O)=O)c(C#N)c1-c1cccs1`, the IC90 worked out at 5.13 µM. The IC50 (HEPG2TOX_HILL_SLOPE 11.8, HEPG2TOX_R_SQUARED 0.984, PBLUC_HILL_SLOPE 123, PBLUC_R_SQUARED 0.486, read-out: LUCIFERASE INFECTION ASSAY - IC50) turned out to be 5.04 µM.

Source of the values: ChEMBL document CHEMBL4483862, “Open-source discovery of chemical leads for next-generation chemoprotective antimalarials” (2018).
